Test results as given in patent US9587005B2 (priority 2010, dated 2017).
*1 amine or outer side, *2 acyl side, *3 side chain or, on linkers, in order; H or OH if unused. Where a SMILES comes first, the peptide text is derived from it. Side-chain parts run from the residue outwards. [ ]: non-standard residue; d: D form. The star is where a group is joined. γGlu = O=C(O)[C@H](CCC(=O)[*:2])N[*:1]; Palmitoyl = CCCCCCCCCCCCCCCC(=O)*; Aib = CC(C)(N)C(=O)O

Tests used:
Assay type in all cases: cell-based
[1] = target: T1, GLP-1 receptor (Homo sapiens, UniProt P43220); assay: cAMP induction, firefly luciferase reporter assay in HEK293 cells co-transfected with GLP-1 receptor
T1 construct: expressed in transfected cells; host or cells: HEK293
T1 sequence (P43220 24-463): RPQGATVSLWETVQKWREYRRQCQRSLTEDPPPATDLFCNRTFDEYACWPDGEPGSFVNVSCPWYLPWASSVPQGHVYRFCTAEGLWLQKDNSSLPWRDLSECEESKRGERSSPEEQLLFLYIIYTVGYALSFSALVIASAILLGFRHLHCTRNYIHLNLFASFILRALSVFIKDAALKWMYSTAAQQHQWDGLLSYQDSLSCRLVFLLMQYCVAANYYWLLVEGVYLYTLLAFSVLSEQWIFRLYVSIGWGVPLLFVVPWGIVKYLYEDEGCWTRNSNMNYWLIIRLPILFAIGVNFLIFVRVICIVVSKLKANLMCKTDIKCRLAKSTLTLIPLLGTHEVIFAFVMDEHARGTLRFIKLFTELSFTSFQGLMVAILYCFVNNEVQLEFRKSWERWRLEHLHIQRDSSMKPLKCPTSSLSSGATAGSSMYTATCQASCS
Description: (§1) This example describes an exemplary method of testing the biological activity of the peptides of the present disclosures, which method involves assaying cAMP synthesis.

[2] = target: T2, glucagon receptor (Homo sapiens, UniProt P47871); assay: cAMP induction, firefly luciferase reporter assay in HEK293 cells co-transfected with glucagon receptor
T2 construct: expressed in transfected cells; host or cells: HEK293
T2 sequence (P47871 26-477): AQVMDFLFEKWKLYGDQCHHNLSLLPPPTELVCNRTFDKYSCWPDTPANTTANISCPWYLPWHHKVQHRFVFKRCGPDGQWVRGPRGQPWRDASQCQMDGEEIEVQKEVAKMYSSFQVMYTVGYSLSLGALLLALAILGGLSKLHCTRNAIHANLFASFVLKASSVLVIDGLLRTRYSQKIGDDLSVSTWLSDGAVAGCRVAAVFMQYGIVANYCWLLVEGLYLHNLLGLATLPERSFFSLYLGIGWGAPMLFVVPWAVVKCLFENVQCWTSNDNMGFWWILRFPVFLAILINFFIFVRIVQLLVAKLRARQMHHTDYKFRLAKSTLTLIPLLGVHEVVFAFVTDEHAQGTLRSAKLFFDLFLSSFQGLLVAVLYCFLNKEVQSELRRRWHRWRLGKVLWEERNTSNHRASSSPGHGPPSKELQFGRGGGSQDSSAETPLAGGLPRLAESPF
Description: as §1

[3] = target: T3, GIP receptor (Homo sapiens, UniProt P48546); assay: cAMP induction, firefly luciferase reporter assay in HEK293 cells co-transfected with GIP receptor
T3 sequence (P48546 22-466): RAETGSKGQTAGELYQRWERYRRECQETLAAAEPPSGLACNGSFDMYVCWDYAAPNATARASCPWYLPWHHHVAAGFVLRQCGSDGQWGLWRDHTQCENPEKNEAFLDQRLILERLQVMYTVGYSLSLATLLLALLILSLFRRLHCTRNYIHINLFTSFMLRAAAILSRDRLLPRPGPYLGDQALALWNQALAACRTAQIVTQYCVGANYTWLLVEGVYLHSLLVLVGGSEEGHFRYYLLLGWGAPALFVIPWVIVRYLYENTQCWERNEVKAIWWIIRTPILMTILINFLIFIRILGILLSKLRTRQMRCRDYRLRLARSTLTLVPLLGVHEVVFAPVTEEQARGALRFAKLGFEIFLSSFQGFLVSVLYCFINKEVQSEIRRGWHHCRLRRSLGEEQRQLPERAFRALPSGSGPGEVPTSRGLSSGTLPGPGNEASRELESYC

[4] = EC50 (nM) at GLP-1 receptor, Table 16, Example 24
[5] = EC50 (nM) at glucagon receptor, Table 16, Example 24
[6] = EC50 (nM) at GIP receptor, Table 16, Example 24
[7] = EC50 (nM) at GLP-1 Receptor, Table 4, Example 9, composite of multiple different activity assays
[8] = EC50 (nM) at Glucagon Receptor, Table 4, Example 9, composite of multiple different activity assays
[9] = EC50 (nM) at Glucagon Receptor, Table 7, Example 13
[10] = EC50 (nM) at GIP Receptor, Table 4, Example 9, composite of multiple different activity assays
[11] = EC50 (nM) at GIP Receptor, Table 7, Example 13

Row | Structure (SMILES) | EC50 [1, 4] [nM] | EC50 [2, 5] [nM] | EC50 [3, 6] [nM] | EC50 [1, 7] [nM] | EC50 ([1]; EC50 (nM) at GLP-1 Receptor, Table 7, Example 13) [nM] | EC50 [2, 8] [nM] | EC50 [2, 9] [nM] | EC50 [3, 10] [nM] | EC50 [3, 11] [nM]
1 | CCCCCCCCCCCCCCCC(=O)N[C@@H](CCC(=O)NCCCC[C@H](NC(=O)[C@H](CC(=O)O)NC(=O)[C@H](CO)NC(=O)[C@@H](NC(=O)[C@H](Cc1ccccc1)NC(=O)[C@@H](NC(=O)CNC(=O)[C@H](CCC(N)=O)NC(=O)C(C)(C)NC(=O)[C@@H](N)Cc1c[nH]cn1)[C@@H](C)O)[C@@H](C)O)C(=O)N[C@@H](CO)C(=O)N[C@@H](CCCCN)C(=O)N[C@@H](Cc1ccc(O)cc1)C(=O)N[C@@H](CC(C)C)C(=O)N[C@@H](CC(=O)O)C(=O)N[C@@H](CCC(=O)O)C(=O)N[C@@H](CCCNC(=N)N)C(=O)N[C@@H](C)C(=O)N[C@@H](C)C(=O)N[C@@H](CCC(N)=O)C(=O)N[C@@H](CC(=O)O)C(=O)N[C@@H](Cc1ccccc1)C(=O)N[C@H](C(=O)N[C@@H](CCC(N)=O)C(=O)N[C@@H](Cc1c[nH]c2ccccc12)C(=O)N[C@@H](CC(C)C)C(=O)N[C@@H](CC(C)C)C(=O)N[C@@H](CC(=O)O)C(=O)NCC(=O)NCC(=O)N1CCC[C@H]1C(=O)N[C@@H](CO)C(=O)N[C@@H](CO)C(=O)NCC(=O)N[C@@H](C)C(=O)N1CCC[C@H]1C(=O)N1CCC[C@H]1C(=O)N1CCC[C@H]1C(=O)N[C@@H](CO)C(=O)NCC(N)=O)C(C)C)C(=O)O [SEQ ID NO: 205] (H-H[Aib]QGTFTSDK([γGlu-Palmitoyl])SKYLDERAAQDFVQWLLDGGPSSGAPPPSG-NH2) | 0.002 | 0.005 | 0.004 | – | – | – | – | – | –
2 | CCCCCCCCCCCCCCCC(=O)N[C@@H](CCC(=O)N[C@@H](CCC(=O)NCCCC[C@H](NC(=O)[C@H](CC(=O)O)NC(=O)[C@H](CO)NC(=O)[C@@H](NC(=O)[C@H](Cc1ccccc1)NC(=O)[C@@H](NC(=O)CNC(=O)[C@H](CCC(N)=O)NC(=O)C(C)(C)NC(=O)[C@@H](N)Cc1c[nH]cn1)[C@@H](C)O)[C@@H](C)O)C(=O)N[C@@H](CO)C(=O)N[C@@H](CCCCN)C(=O)N[C@@H](Cc1ccc(O)cc1)C(=O)N[C@@H](CC(C)C)C(=O)N[C@@H](CC(=O)O)C(=O)N[C@@H](CCC(=O)O)C(=O)N[C@@H](CCCNC(=N)N)C(=O)N[C@@H](C)C(=O)N[C@@H](C)C(=O)N[C@@H](CCC(N)=O)C(=O)N[C@@H](CC(=O)O)C(=O)N[C@@H](Cc1ccccc1)C(=O)N[C@H](C(=O)N[C@@H](CCC(N)=O)C(=O)N[C@@H](Cc1c[nH]c2ccccc12)C(=O)N[C@@H](CC(C)C)C(=O)N[C@@H](CC(C)C)C(=O)N[C@@H](CC(=O)O)C(=O)NCC(=O)NCC(=O)N1CCC[C@H]1C(=O)N[C@@H](CO)C(=O)N[C@@H](CO)C(=O)NCC(=O)N[C@@H](C)C(=O)N1CCC[C@H]1C(=O)N1CCC[C@H]1C(=O)N1CCC[C@H]1C(=O)N[C@@H](CO)C(=O)NCC(N)=O)C(C)C)C(=O)O)C(=O)O [SEQ ID NO: 207] (H-H[Aib]QGTFTSDK([γGlu-γGlu-Palmitoyl])SKYLDERAAQDFVQWLLDGGPSSGAPPPSG-NH2; N-terminus assumed) | 0.002 | 0.005 | 0.015 | – | – | – | – | – | –
3 | CCCCCCCCCCCCCCCC(=O)N[C@@H](CCC(=O)NCCCC[C@H](NC(=O)[C@H](CC(=O)O)NC(=O)[C@H](CO)NC(=O)[C@@H](NC(=O)[C@H](Cc1ccccc1)NC(=O)[C@@H](NC(=O)CNC(=O)[C@H](CCC(N)=O)NC(=O)C(C)(C)NC(=O)[C@@H](N)Cc1c[nH]cn1)[C@@H](C)O)[C@@H](C)O)C(=O)N[C@@H](CO)C(=O)N[C@@H](CCCCN)C(=O)N[C@@H](Cc1ccc(O)cc1)C(=O)N[C@@H](CC(C)C)C(=O)N[C@@H](CC(=O)O)C(=O)N[C@@H](CCC(=O)O)C(=O)N[C@@H](CCCNC(=N)N)C(=O)N[C@@H](C)C(=O)N[C@@H](C)C(=O)N[C@@H](CCC(N)=O)C(=O)N[C@@H](CC(=O)O)C(=O)N[C@@H](Cc1ccccc1)C(=O)N[C@H](C(=O)N[C@@H](CCC(N)=O)C(=O)N[C@@H](Cc1c[nH]c2ccccc12)C(=O)N[C@@H](CC(C)C)C(=O)N[C@@H](CC(C)C)C(=O)N[C@@H](CC(=O)O)C(=O)NCC(=O)NCC(=O)N1CCC[C@H]1C(=O)N[C@@H](CO)C(=O)N[C@@H](CO)C(=O)NCC(=O)N[C@@H](C)C(=O)N1CCC[C@H]1C(=O)N1CCC[C@H]1C(=O)N1CCC[C@H]1C(=O)N[C@@H](CO)C(N)=O)C(C)C)C(=O)O [compound 28] | – | – | – | 0.002 | 0.002 | 0.002 | 0.002 | 0.003 | 0.003
4 | CCCCCCCCCCCCCCCC(=O)N[C@@H](CCC(=O)NCCCC[C@H](NC(=O)[C@H](CC(=O)O)NC(=O)[C@H](CO)NC(=O)[C@@H](NC(=O)[C@H](Cc1ccccc1)NC(=O)[C@@H](NC(=O)CNC(=O)[C@H](CCC(N)=O)NC(=O)C(C)(C)NC(=O)[C@@H](N)Cc1c[nH]cn1)[C@@H](C)O)[C@@H](C)O)C(=O)N[C@@H](CO)C(=O)N[C@@H](CCCCN)C(=O)N[C@@H](Cc1ccc(O)cc1)C(=O)N[C@@H](CC(C)C)C(=O)N[C@@H](CC(=O)O)C(=O)N[C@@H](CCC(=O)O)C(=O)N[C@@H](CCCNC(=N)N)C(=O)N[C@@H](CCCNC(=N)N)C(=O)N[C@@H](C)C(=O)NC(C)(C)C(=O)N[C@@H](CCC(=O)O)C(=O)N[C@@H](Cc1ccccc1)C(=O)N[C@H](C(=O)N[C@@H](CCC(N)=O)C(=O)N[C@@H](Cc1c[nH]c2ccccc12)C(=O)N[C@@H](CC(C)C)C(=O)N[C@@H](CC(C)C)C(=O)N[C@@H](CC(=O)O)C(=O)N[C@H](C(N)=O)[C@@H](C)O)C(C)C)C(=O)O [compound 31] (H-H[Aib]QGTFTSDK([γGlu-Palmitoyl])SKYLDERRA[Aib]EFVQWLLDT-NH2; N-terminus assumed) | – | – | – | 0.0044 | – | 0.008 | 0.008 | 0.008 | 0.008
5 | CCCCCCCCCCCCCCCC(=O)N[C@@H](CCC(=O)NCCCC[C@H](NC(=O)[C@H](CC(=O)O)NC(=O)[C@H](CO)NC(=O)[C@@H](NC(=O)[C@H](Cc1ccccc1)NC(=O)[C@@H](NC(=O)CNC(=O)[C@H](CCC(N)=O)NC(=O)C(C)(C)NC(=O)[C@@H](N)Cc1c[nH]cn1)[C@@H](C)O)[C@@H](C)O)C(=O)N[C@@H](CO)C(=O)N[C@@H](CCCCN)C(=O)N[C@@H](Cc1ccc(O)cc1)C(=O)N[C@@H](CC(C)C)C(=O)N[C@@H](CC(=O)O)C(=O)N[C@@H](CCC(=O)O)C(=O)N[C@@H](CCCNC(=N)N)C(=O)N[C@@H](CCCNC(=N)N)C(=O)N[C@@H](C)C(=O)NC(C)(C)C(=O)N[C@@H](CCC(=O)O)C(=O)N[C@@H](Cc1ccccc1)C(=O)N[C@H](C(=O)N[C@@H](CCC(N)=O)C(=O)N[C@@H](Cc1c[nH]c2ccccc12)C(=O)N[C@@H](CC(C)C)C(=O)N[C@@H](CC(C)C)C(=O)N[C@@H](CC(=O)O)C(=O)NCC(=O)NCC(=O)N1CCC[C@H]1C(=O)N[C@@H](CO)C(=O)N[C@@H](CO)C(=O)NCC(=O)N[C@@H](C)C(=O)N1CCC[C@H]1C(=O)N1CCC[C@H]1C(=O)N1CCC[C@H]1C(=O)N[C@@H](CO)C(N)=O)C(C)C)C(=O)O [compound 37] (H-H[Aib]QGTFTSDK([γGlu-Palmitoyl])SKYLDERRA[Aib]EFVQWLLDGGPSSGAPPPS-NH2; N-terminus assumed) | – | – | – | 0.006 | – | 0.004 | – | 0.002 | –
